# Columns and labels:
# DPAP3 [1] = target: T1, DPAP3 (Plasmodium falciparum, UniProt Q8I1Y2); assay: cell-based; design: native enzyme in live parasites (mature schizonts); species or system P. falciparum mature schizonts in red blood cells; competitive activity-based probe FY01 labelling in intact parasites, in-gel fluorescence densitometry; settings: live parasites, 30 min pretreatment
# Method: Live parasites were treated with different concentrations of inhibitor for 30 min, and the residual level of DPAPs and FPs activities were labelled with FY01 and quantified by densitometry (Fig. 6A). […] Compounds with a P2 Trp or Tyr(NO2) are highly specific for DPAP3 in intact parasites. […] Inhibitors need to cross four membranes to reach DPAP3: the RBC, parasitophorous vacuole and parasite plasma membranes, plus the membrane of the apical organelle where DPAP3 resides 21. (The parasitophorous vacuole is a membrane‐bound structure within which the parasite grows and multiplies isolated from the RBC cytosol.) However, crossing of the parasitophorous vacuole membrane is not likely to be a limiting factor to reach DPAP3 since this membrane is generally permeable to small molecules. It is also likely that the apparent increased potency of Trp‐hPG‐VS in live parasites might be due to its accumulation into the DPAP3 acidic organelle via protonation of its free amine. However, we predict that this lysosomotropic effect likely occurs for all DPAP inhibitors presented here.  Figure 6 Selective inhibition of DPAP1 or DPAP3 in live parasites. Intact mature schizonts were pretreated for 30 min with increasing concentrations of inhibitor followed by 1 h treatment with FY01. Samples were then run in an SDS/PAGE gel and the in‐gel fluorescence measured using a fluorescence scanner. (A) Representative gel images obtained for each of the inhibitors. Fluorescent bands corresponding to the different cysteine proteases labelled by the probe are indicated with arrowheads (DPAP3, red; FPs, green; DPAP1, blue). (B) The fluorescence intensity of each of the indicated bands was quantified by densitometry using ImageJ, and the fluorescence values normalized to the DMSO control. […] Three technical replicates were performed; dose responses for a representative replicate are shown.
# Target sequence in this assay (Q8I1Y2 entry or part of it): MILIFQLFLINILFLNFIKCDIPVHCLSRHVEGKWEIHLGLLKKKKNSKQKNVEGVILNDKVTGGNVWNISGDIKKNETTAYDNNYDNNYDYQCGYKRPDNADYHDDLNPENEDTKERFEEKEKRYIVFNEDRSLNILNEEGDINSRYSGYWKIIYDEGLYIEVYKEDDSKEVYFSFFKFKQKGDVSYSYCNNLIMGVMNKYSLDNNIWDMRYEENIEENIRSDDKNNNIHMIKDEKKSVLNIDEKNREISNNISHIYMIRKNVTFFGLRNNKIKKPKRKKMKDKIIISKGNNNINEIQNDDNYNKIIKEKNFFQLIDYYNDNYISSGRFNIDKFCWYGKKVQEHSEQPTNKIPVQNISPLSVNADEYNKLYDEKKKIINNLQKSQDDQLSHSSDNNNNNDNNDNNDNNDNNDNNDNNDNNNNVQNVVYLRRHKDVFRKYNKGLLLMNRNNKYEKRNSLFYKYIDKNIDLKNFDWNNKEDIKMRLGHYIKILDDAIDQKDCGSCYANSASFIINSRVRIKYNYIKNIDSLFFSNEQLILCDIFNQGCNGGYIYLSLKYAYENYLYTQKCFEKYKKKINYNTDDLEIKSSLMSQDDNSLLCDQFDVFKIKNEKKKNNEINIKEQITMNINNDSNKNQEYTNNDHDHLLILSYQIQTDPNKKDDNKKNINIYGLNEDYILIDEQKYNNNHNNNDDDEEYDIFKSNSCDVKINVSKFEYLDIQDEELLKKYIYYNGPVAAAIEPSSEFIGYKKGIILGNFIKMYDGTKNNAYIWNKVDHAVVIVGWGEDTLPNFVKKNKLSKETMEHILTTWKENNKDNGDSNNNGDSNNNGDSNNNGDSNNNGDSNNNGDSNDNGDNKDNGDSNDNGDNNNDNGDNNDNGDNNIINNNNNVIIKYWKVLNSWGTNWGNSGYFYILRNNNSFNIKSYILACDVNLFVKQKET
# DPAP3 [2] = target: T1, DPAP3; assay: biochemical; design: gene PF3D7_0404700; recombinant, baculovirus/SF9 insect cells, purified from culture supernatant by ion exchange, Ni-NTA and size exclusion; active-site titrated; continuous fluorogenic assay, time-dependent inactivation of 0.2 nM recombinant DPAP3, Met-nLeu(o-Bzl)-ACC 2.2 uM; settings: for kinact: read-out: DPAP3 / k inact ·10^3; for kinact/KI: read-out: DPAP3 / k inact/K i ·10^−3 (M ^−1·s^−1)
# Method: The data were analysed according to the irreversible inhibition model shown in Eqn. 1. First, the progress curves (fluorescent units vs. time) were fitted to Eqn. 5, where F is the measured fluorescence at time t, F 0 the initial fluorescence, V 0 the initial turnover rate, and k obs the observed […] rate constant of inhibition measured at each inhibitor concentration 64. […] The inhibition constants are reported in Fig. 3C and Table 2 (See also Fig. S2 for representative fits). Only one inhibitor, containing an amino‐1‐methyl‐benzyl (Amb) group in P2, was not able to inhibit DPAP3 in a time‐dependent manner under our assay conditions (Fig. 3D). This is probably due to the fact that this extended and rigid P2 AA (Fig. 3E) might prevent proper positioning of the [compound left out] group into the active site of DPAP3 to allow covalent modification of the catalytic cysteine. For this compound, a K i value for reversible inhibition was measured.
# Target sequence in this assay (Q8I1Y2 entry or part of it): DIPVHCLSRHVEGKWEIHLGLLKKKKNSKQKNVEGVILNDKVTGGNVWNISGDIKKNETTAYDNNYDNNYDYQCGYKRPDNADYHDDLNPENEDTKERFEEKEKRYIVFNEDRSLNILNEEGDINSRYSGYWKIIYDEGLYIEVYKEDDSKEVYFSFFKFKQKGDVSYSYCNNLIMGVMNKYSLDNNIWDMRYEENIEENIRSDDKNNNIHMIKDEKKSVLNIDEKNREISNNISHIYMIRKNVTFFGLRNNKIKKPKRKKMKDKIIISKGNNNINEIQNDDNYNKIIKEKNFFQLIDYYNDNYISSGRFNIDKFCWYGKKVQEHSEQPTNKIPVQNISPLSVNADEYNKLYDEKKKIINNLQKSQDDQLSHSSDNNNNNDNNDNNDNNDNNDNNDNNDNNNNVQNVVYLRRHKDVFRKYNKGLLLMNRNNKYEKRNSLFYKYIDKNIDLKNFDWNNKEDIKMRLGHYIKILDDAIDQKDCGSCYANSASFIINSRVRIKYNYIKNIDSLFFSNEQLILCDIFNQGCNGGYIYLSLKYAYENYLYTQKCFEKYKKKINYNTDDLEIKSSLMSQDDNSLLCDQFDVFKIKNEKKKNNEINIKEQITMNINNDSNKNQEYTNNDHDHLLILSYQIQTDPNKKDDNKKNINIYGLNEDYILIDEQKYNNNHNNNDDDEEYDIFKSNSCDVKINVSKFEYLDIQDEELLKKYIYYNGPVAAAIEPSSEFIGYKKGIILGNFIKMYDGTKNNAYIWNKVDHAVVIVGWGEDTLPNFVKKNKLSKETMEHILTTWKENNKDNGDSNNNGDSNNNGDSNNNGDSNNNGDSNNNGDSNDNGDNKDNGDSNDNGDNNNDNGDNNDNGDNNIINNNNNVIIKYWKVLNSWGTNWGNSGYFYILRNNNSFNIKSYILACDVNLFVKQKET
# DPAP1 [3] = target: T2, DPAP1 (Plasmodium falciparum, UniProt Q8IIJ9); assay: biochemical; design: species or system P. falciparum parasite lysate; continuous fluorogenic assay, time-dependent inactivation of DPAP1 in diluted parasite lysate, Pro-Arg-AMC 20 uM; settings: for kinact: read-out: DPAP1 / k inact ·10^3; for kinact/KI: read-out: DPAP1 / k inact/K i ·10^−3 (M ^−1·s^−1)
# T2 sequence (Q8IIJ9 28-209): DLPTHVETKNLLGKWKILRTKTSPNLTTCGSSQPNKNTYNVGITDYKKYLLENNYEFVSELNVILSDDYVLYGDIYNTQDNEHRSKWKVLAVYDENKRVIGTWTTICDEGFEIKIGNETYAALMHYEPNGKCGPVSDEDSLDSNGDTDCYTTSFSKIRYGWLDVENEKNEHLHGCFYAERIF
# T2 sequence (Q8IIJ9 370-599): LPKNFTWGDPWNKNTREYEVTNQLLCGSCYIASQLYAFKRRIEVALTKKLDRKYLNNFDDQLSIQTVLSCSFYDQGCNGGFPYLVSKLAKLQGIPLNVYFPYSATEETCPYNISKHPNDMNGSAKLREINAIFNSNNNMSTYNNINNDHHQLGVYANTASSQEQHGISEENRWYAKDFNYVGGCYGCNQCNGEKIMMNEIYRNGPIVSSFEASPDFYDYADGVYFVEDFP
# T2 sequence (Q8IIJ9 600-700): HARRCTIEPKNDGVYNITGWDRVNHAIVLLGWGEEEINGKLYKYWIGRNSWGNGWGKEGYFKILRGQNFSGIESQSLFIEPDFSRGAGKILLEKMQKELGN
# Method: (§1) Inhibition of DPAP1 was directly measured in parasite lysates diluted 100‐fold in assay buffer using the DPAP1‐selective substrate Pro‐Arg‐AMC 42; 0.2 nM of […] was used for these inhibition studies. Note that because DPAP1 inhibition was directly measured in parasite lysates, inhibitors might have been partially inactivated through the action of aminopeptidases present in the lysates during the course of the assay. Therefore, the potency of the inhibitors might have been underestimated. […] The data were analysed according to the irreversible inhibition model shown in Eqn. 1. First, the progress curves (fluorescent units vs. time) were fitted to Eqn. 5, where F is the measured fluorescence at time t, F 0 the initial fluorescence, V 0 the initial turnover rate, and k obs the observed […] rate constant of inhibition measured at each inhibitor concentration 64.
# CatC (bovine) = target: T3, CatC (bovine) (Bos taurus, UniProt Q3ZCJ8); assay: biochemical; design: continuous fluorogenic assay, time-dependent inactivation of 0.2 nM CatC, Gly-Arg-AMC 15 uM; settings: for kinact: read-out: CatC / k inact ·10^3; for kinact/KI: read-out: CatC / k inact/K i ·10^−3 (M ^−1·s^−1)
# T3 construct: gene CTSC; native, purified to homogeneity from bovine spleen
# Method: as §1
# FP1 = target: T4, FP1 (Plasmodium falciparum, UniProt P25805); assay: cell-based; design: species or system P. falciparum mature schizonts in red blood cells; competitive activity-based probe FY01 labelling in intact parasites, in-gel fluorescence densitometry; settings: live parasites, 30 min pretreatment
# T4 construct: native falcipain 1 in live parasites (mature schizonts)
# Method: (§2) Live parasites were treated with different concentrations of inhibitor for 30 min, and the residual level of DPAPs and FPs activities were labelled with FY01 and quantified by densitometry (Fig. 6A). […] Compounds with a P2 Trp or Tyr(NO2) are highly specific for DPAP3 in intact parasites. […] Inhibitors need to cross four membranes to reach DPAP3: the RBC, parasitophorous vacuole and parasite plasma membranes, plus the membrane of the apical organelle where DPAP3 resides 21. (The parasitophorous vacuole is a membrane‐bound structure within which the parasite grows and multiplies isolated from the RBC cytosol.) However, crossing of the parasitophorous vacuole membrane is not likely to be a limiting factor to reach DPAP3 since this membrane is generally permeable to small molecules. It is also likely that the apparent increased potency of Trp‐hPG‐VS in live parasites might be due to its accumulation into the DPAP3 acidic organelle via protonation of its free amine. However, we predict that this lysosomotropic effect likely occurs for all DPAP inhibitors presented here. […] Samples were then run in an SDS/PAGE gel and the in‐gel fluorescence measured using a fluorescence scanner. […] (B) The fluorescence intensity of each of the indicated bands was quantified by densitometry using ImageJ, and the fluorescence values normalized to the DMSO control. […]
# DPAP1 [4] = target: T5, DPAP1 (Plasmodium falciparum, UniProt Q8IIJ9); assay: cell-based; design: species or system P. falciparum mature schizonts in red blood cells; competitive activity-based probe FY01 labelling in intact parasites, in-gel fluorescence densitometry; settings: live parasites, 30 min pretreatment
# T5 construct: native enzyme in live parasites (mature schizonts)
# T5 sequence (Q8IIJ9 1-700): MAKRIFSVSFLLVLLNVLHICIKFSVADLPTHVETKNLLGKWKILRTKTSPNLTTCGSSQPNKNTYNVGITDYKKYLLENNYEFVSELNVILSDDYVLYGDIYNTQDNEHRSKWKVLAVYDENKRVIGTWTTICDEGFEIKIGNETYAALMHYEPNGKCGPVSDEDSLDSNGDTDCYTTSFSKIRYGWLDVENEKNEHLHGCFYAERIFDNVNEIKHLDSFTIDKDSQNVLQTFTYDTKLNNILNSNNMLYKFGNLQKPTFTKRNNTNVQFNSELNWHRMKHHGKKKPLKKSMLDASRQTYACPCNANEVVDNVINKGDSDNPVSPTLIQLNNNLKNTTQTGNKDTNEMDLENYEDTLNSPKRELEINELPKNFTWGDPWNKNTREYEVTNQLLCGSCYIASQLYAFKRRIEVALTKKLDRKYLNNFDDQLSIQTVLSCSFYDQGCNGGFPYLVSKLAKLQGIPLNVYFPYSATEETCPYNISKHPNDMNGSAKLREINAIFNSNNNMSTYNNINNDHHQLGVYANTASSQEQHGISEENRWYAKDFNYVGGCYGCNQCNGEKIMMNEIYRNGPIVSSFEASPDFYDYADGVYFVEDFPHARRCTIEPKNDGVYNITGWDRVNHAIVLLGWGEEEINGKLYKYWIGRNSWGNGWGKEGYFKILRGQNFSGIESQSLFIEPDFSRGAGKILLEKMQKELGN
# Method: as §2
# T3 sequence (Q3ZCJ8 25-134): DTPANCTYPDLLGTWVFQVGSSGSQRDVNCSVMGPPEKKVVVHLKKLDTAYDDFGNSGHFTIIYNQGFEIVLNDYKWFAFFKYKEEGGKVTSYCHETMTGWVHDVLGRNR
# T3 sequence (Q3ZCJ8 231-394): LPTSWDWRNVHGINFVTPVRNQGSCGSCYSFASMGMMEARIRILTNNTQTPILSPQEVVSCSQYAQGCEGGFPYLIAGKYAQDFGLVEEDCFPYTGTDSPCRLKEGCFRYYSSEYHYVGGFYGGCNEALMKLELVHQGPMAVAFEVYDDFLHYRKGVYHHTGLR
# T3 sequence (Q3ZCJ8 395-463): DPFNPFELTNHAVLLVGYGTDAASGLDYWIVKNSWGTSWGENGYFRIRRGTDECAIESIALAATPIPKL
# T4 sequence (P25805 whole entry): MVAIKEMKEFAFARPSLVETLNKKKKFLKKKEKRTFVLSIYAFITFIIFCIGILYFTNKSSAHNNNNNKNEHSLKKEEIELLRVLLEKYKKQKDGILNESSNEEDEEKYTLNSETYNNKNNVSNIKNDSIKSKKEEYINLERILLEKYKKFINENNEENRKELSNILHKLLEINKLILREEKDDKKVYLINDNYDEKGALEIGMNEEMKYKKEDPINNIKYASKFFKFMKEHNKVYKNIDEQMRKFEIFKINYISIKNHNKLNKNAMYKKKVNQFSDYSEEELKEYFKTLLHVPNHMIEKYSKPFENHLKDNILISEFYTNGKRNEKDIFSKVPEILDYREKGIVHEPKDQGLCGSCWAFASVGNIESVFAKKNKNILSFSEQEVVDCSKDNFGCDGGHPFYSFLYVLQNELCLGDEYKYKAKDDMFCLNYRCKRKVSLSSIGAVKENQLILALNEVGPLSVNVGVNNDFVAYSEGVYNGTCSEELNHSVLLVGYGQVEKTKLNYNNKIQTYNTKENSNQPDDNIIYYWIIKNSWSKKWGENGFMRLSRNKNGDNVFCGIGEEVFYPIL
SMILES,IC50 (DPAP3 [1]) [nM],kinact (DPAP3 [2]) [s⁻¹],kinact/KI (DPAP3 [2]) [M⁻¹ s⁻¹],kinact (DPAP1 [3]) [s⁻¹],kinact/KI (DPAP1 [3]) [M⁻¹ s⁻¹],kinact (CatC (bovine)) [s⁻¹],kinact/KI (CatC (bovine)) [M⁻¹ s⁻¹],IC50 (FP1) [nM],IC50 (DPAP1 [4]) [nM]
N[C@@H](Cc1c[nH]c2ccccc12)C(=O)N[C@H](/C=C/S(=O)(=O)c1ccccc1)CCCCOCc1ccccc1 [L‐Trp‐nLeu(o‐Bzl)‐VS],760 ± 150,0.0032 ± 0.0003,826000 ± 193000,0.0022 ± 0.0001,5800 ± 600,0.00174 ± 3e-05,355000 ± 18000,,
O=C(N[C@H](C=CS(=O)(=O)c1ccccc1)CCc1ccccc1)[C@@H]1CCCN1 [Pro‐hPhe‐VS],,0.0035 ± 0.0002,4100 ± 300,0.0021 ± 0.0002,470000 ± 35000,0.00145 ± 7e-05,42000 ± 5000,,
N[C@@H](Cc1ccc(O)c([N+](=O)[O-])c1)C(=O)N[C@H](C=CS(=O)(=O)c1ccccc1)CCc1ccccc1 [Tyr(NO2)‐hPhe‐VS],,0.00226 ± 5e-05,950000 ± 74000,0.0038 ± 0.001,150 ± 50,0.0032 ± 0.0006,54 ± 8,,
N[C@@H](Cc1ccc(O)c([N+](=O)[O-])c1)C(=O)N[C@H](/C=C/S(=O)(=O)c1ccccc1)CCCCOCc1ccccc1 [Tyr(NO2)‐nLeu(o‐Bzl)‐VS],730 ± 170,0.0027 ± 0.0002,51000 ± 10000,0.0026 ± 0.0003,1100 ± 300,0.0029 ± 0.0002,380 ± 50,,
O=C(N[C@H](/C=C/S(=O)(=O)c1ccccc1)CCc1ccccc1)[C@@H]1CCCCN1 [hPro‐hPhe‐VS],160 ± 50,0.0021 ± 0.0001,69000 ± 13000,0.0048 ± 0.0006,1.23e+06 ± 400000,0.00167 ± 8e-05,76000 ± 800,350 ± 80,80 ± 7
O=C(N[C@H](/C=C/S(=O)(=O)c1ccccc1)CCCCOCc1ccccc1)[C@@H]1CCCCN1 [hPro‐nLeu(o‐Bzl)‐VS],,0.002 ± 0.0001,53000 ± 6500,0.0029 ± 0.0003,3.56e+06 ± 150000,0.00167 ± 3e-05,150000 ± 6000,,
CCC[C@H](N)C(=O)N[C@H](/C=C/S(=O)(=O)c1ccccc1)CCc1ccccc1 [nVal‐hPhe‐VS],,0.0026 ± 0.0004,940000 ± 160000,0.002 ± 0.0001,3.16e+06 ± 750000,0.0022 ± 0.0001,5.83e+06 ± 970000,,

# — paper PMC6851853, “Characterization of P. falciparum dipeptidyl aminopeptidase 3 specificity identifies differences in amino acid preferences between peptide‐based substrates and covalent inhibitors” (The Febs Journal, 2019)
